Test results as given in PMC12382614, “(Oxidopyridyl)Porphyrins of Different Lipophilicity: Photophysical Properties, ROS Production and Phototoxicity on Melanoma Cells Under CoCl2-Induced Hypoxia” (Antioxidants, 2025).
Like-named read-outs stand apart in the source and are kept apart here.

Experiments:
[1] = UV-Vis absorption spectra in MeOH; format: physicochemical
Procedure: The absorption spectra of (oxidopyridyl)porphyrins were recorded in HPLC grade MeOH on a Cary UV 60 (Agilent Technologies, Santa Clara, CA, USA), in a wavelength range of 300–700 nm. The fluorescence spectra in HPLC grade MeOH were recorded on a Cary Eclipse (Agilent Technologies) in a wavelength range of 500–800 nm after excitation at the Soret band wavelength (λ ~ 420 nm). The slits of the spectrometer were set to a bandpass of 5 nm for the excitation and 5 nm for the emission. To calculate the fluorescence quantum yields, the measurements were conducted on an FS5 Edinburgh Instruments spectrometer. Prior to taking the measurements, the solutions were purged with high-purity N2 for at least 15 min. The absorbance of the solutions was set to A < 0.1 at 405 nm and 550 nm, which settings were used for the excitation process. Emission was recorded from 550 to 800 nm, with slits set to the bandpass corresponding to 2 nm for the excitation, and 3 nm for the emission. Fluorescence quantum yield (ΦFL) was calculated in comparison to the tetraphenylporphyrin (TPP; ΦFL = 0.11 [23]) as a standard, according to Equation (S1) and following an equation previously described elsewhere.

[2] = tested on: HDF; assay: Photocytotoxicity, MTT assay; format: cell-based, human; conditions: for IC50: Homo sapiens, HDF, light or radiation study, 6 h incubation, red light 643 nm 30 min
[3] = tested on: MeWo; assay: Photocytotoxicity, MTT assay; format: cell-based, human; conditions: red light 643 nm 30 min; for IC50: Homo sapiens, MeWo, light or radiation study, 6 h incubation

ε Qx (0-0) [1]: 1600 M⁻¹ cm⁻¹
ε Qx (1-0) [1]: 4500 M⁻¹ cm⁻¹
ε Qy (0-0) [1]: 4300 M⁻¹ cm⁻¹
ε Qy (1-0) [1]: 15000 M⁻¹ cm⁻¹
ε Soret (B) [1]: 275400 M⁻¹ cm⁻¹
λabs Qx (0-0) [1]: 646 nm
λabs Qx (1-0) [1]: 587 nm
λabs Qy (0-0) [1]: 547 nm
λabs Qy (1-0) [1]: 512 nm
λabs Soret (B) [1]: 417 nm
Structure (SMILES): CCCCCCCCCCCCCCCCCC(=O)Nc1ccc(-c2c3nc(c(-c4ccc[n+]([O-])c4)c4ccc([nH]4)c(-c4ccc[n+]([O-])c4)c4nc(c(-c5ccc[n+]([O-])c5)c5ccc2[nH]5)C=C4)C=C3)cc1 [TOPyP3-C17H35, 5-(4-Octadecanamidophenyl)-10,15,20-tris(1-oxido-3-pyridyl)porphyrin]
reduction in the proliferation of cells ([2]; 1 µM, irradiation 643 nm, normoxia): ~ 40%
IC50 ([2]; 3.6 J/cm^2, 100 μM CoCl2 at least 2 h before porphyrin, read-out: IC50 HDF CoCl2): 1090 ± 290 nM
IC50 ([2]; 3.6 J/cm^2, normoxia, read-out: IC50 HDF No CoCl2): 1310 ± 570 nM
IC50 ([3]; 3.6 J/cm^2, 100 μM CoCl2 at least 2 h before porphyrin, read-out: IC50 MeWo CoCl2): 680 ± 190 nM
IC50 ([3]; 3.6 J/cm^2, normoxia, read-out: IC50 MeWo No CoCl2): 660 ± 140 nM
SI (IC50 (HDF) / IC50 (melanoma cells)) MeWo 100 µM CoCl2 ([3]; CoCl2-induced hypoxia): 1.6
SI (IC50 (HDF) / IC50 (melanoma cells)) MeWo No CoCl2 ([3]; normoxia): 2.0
